# Laboratory results taken from patent US20120065198A2, “Detection and Treatment of Schizophrenia” (Tokai University Educational System, priority 2007, published 2012).
# Tested on: pentosidine formation
# Assay: Inhibitory effect on pentosidine formation in plasma of hemodialysis patients
# Format: biochemical, human
# Conditions: final concentrations 0.8, 2.0, and 5.0 mM, 1 week at 37° C., FIG. 13
# Experimental: Plasma was collected from hemodialysis patients prior to dialysis with the patients' consent, and the plasma was filtered and sterilized. To the plasma (450 μL) was added solutions of TM-2002 in dimethylsulfoxide (50 μL) (final concentrations: 0.8, 2.0, and 5.0 mM), and the mixtures were incubated for 1 week at 37° C. The levels of the pentosidine formation were measured.
# Pentosidine was measured as follows. To each sample (50 μL) after incubation was added an equal volume of 10% trichloroacetic acid, and the mixture was subsequently centrifuged at 5,000 g for 5 minutes. After the supernatant was removed, the pellet was washed with 5% trichloroacetic acid (300 μL). […] The concentration of the released pentosidine was measured by reverse-phase HPLC using a fluorescence detector (RF-10A, Shimadzu Corporation) (Miyata, T. et al.; Proc. Natl. Acad. Sci. USA, Vol. 93, p. 2353-2358, 1996). The effluent was monitored at the excitation/emission wavelength of 335/385 nm. […]
# The inhibitory effect was evaluated by comparison with a positive control (pyridoxamine (Sigma)), which was reacted in the same manner as Compound TM-2002. […] The results (the quantities of pentosidine: nmol/ml) are shown in FIG. 13, wherein the “control” hereinbelow means a negative control using only the solvent.
compound,measurement,value
"Cc1ncc2c(c1O)C(c1c(C)nn(-c3ccccc3)c1O)OC2 (stereo not shown) [No. 68, 1-(5-hydroxy-3-methyl-1-phenyl-1H-pyrazol-4-yl)-6-methyl-1,3-dihydro-furo[3,4-c]pyridin-7-ol]",inhibition of pentosidine formation compared to pyridoxamine (positive control),significantly inhibits the pentosidine formation as compared to pyridoxamine
